From article PMC9820167, “Design and Synthesis of Conformationally Flexible Scaffold as Bitopic Ligands for Potent D3-Selective Antagonists” (International Journal of Molecular Sciences, 2022)

Legend:
[1] = target: T1, human D2 receptors (Homo sapiens, UniProt P14416); assay: Radioligand binding assay with [125I]IABN, D2 receptor; settings: [125I]IABN, D2 receptors expressed in HEK cells; mean ± SEM, three experiments; HCl salts; read-out: Ki ± SEM (nM) D2
T1 construct: expressed in transfected cells; host or cells: HEK293
T1 sequence (P14416 whole entry): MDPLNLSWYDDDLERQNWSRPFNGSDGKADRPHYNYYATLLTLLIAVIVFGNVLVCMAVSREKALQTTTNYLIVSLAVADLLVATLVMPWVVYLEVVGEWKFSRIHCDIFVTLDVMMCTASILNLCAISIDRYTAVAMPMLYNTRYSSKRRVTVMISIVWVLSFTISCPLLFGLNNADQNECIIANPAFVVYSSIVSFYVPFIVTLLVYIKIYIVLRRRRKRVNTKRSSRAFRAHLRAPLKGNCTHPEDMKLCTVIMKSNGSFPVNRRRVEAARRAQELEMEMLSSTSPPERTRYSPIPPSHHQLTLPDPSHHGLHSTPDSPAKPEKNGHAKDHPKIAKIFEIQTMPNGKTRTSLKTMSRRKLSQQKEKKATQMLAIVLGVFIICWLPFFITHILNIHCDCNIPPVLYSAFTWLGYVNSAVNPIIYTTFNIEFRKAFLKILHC
Method: Two different assays were used to evaluate the properties of the analogs described above. The receptor binding affinity was measured by radioligand binding assays using [^125I]IABN with D2 or D3 receptors highly expressed HEK293 cells. The functional activity of the analogs was determined using a β-arrestin recruitment assay. […] The results of the antagonist mode assay are reported as IC50 values.
(§1) Ki values for D2 and D3 receptors were measured using [^125I]IABN in human D2 and D3 receptors expressed in HEK cells, respectively. A filtration binding assay was used to characterize membrane-associated receptor binding properties. The details for the procedures were described in the literature.

[2] = target: Serotonin 5-HT1B (Homo sapiens, UniProt P28222); assay: PDSP binding screen; settings: for inhibition at 10 µM: read-out: Ki (nM) or % inhibition at 10 µM: 5-HT1B
Serotonin 5-HT1B, sequence (P28222 whole entry): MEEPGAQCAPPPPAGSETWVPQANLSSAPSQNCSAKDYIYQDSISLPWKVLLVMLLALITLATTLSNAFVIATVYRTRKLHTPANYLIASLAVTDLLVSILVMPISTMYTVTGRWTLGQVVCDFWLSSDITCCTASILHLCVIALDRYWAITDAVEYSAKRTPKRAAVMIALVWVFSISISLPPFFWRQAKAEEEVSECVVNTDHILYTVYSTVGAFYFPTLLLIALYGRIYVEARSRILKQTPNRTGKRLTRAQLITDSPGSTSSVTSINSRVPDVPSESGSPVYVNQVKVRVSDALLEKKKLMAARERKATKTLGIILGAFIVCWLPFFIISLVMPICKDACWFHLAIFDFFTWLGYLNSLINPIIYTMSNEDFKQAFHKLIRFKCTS

[3] = target: T2, Adrenergic alpha1A (Homo sapiens, UniProt P35348); assay: PDSP binding screen; settings: for inhibition at 10 µM: read-out: Ki (nM) or % inhibition at 10 µM: alpha1A
T2 sequence (P35348 1-466): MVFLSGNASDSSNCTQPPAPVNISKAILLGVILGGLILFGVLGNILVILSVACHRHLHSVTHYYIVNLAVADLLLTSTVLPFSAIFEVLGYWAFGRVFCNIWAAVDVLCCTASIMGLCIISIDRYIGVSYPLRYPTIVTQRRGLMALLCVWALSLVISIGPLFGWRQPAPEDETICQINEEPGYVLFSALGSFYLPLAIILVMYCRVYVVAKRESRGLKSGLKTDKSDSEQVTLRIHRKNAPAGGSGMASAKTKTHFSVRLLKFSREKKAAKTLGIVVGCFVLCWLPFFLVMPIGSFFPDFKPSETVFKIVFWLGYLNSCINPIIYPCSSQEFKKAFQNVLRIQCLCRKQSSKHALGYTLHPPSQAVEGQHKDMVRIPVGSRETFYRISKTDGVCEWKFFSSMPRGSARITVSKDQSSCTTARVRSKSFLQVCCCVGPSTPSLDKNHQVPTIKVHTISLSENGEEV

[4] = target: Adrenergic beta1 (Homo sapiens, UniProt P08588); assay: PDSP binding screen; settings: for inhibition at 10 µM: read-out: Ki (nM) or % inhibition at 10 µM: beta1
Adrenergic beta1, sequence (P08588 whole entry): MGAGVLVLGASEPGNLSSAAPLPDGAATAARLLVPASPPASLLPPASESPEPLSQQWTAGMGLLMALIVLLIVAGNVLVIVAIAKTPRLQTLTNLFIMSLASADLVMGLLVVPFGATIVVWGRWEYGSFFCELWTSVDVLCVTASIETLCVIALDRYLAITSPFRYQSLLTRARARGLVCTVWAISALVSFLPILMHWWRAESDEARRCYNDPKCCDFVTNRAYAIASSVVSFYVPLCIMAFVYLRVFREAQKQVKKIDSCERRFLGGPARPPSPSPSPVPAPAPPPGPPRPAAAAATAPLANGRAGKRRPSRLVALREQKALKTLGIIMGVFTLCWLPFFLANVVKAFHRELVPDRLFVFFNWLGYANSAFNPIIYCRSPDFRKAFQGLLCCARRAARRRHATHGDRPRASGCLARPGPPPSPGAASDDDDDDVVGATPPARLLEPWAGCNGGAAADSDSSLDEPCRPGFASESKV

[5] = target: Dopamine D1 (Homo sapiens, UniProt P21728); assay: PDSP binding screen; settings: for inhibition at 10 µM: read-out: Ki (nM) or % inhibition at 10 µM: D1
Dopamine D1, sequence (P21728 whole entry): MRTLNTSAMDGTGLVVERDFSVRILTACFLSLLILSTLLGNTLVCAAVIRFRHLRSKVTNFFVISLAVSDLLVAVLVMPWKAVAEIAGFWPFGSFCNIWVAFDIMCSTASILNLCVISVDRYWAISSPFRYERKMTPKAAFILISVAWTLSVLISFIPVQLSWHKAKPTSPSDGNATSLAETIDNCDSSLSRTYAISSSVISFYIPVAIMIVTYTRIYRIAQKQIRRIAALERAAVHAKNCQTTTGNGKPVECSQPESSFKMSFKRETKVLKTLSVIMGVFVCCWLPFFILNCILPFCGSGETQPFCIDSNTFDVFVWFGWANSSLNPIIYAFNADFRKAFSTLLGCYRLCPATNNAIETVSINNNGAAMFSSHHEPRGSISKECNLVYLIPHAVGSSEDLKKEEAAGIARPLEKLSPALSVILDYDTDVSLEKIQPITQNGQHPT

[6] = target: Dopamine D2 (Homo sapiens, UniProt P14416); assay: PDSP binding screen
Dopamine D2, sequence (P14416 whole entry): as the sequence (P14416 whole entry) above

[7] = target: Dopamine D5 (Homo sapiens, UniProt P21918); assay: PDSP binding screen; settings: for inhibition at 10 µM: read-out: Ki (nM) or % inhibition at 10 µM: D5
Dopamine D5, sequence (P21918 whole entry): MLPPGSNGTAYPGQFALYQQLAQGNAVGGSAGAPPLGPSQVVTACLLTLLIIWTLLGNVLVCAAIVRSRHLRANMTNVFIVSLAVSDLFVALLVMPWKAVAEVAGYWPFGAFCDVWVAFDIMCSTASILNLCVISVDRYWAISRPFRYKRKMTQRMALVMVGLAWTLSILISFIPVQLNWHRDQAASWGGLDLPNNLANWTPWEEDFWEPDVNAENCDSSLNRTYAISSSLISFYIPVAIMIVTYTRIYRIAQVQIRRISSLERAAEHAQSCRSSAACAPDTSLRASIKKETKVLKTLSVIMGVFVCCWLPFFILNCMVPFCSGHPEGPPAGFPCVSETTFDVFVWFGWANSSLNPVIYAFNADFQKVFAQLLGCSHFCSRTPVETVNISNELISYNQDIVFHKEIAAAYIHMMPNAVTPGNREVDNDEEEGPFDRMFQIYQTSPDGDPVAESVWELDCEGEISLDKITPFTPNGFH

[8] = target: Opioid KOR (Homo sapiens, UniProt P41145); assay: PDSP binding screen; settings: for inhibition at 10 µM: read-out: Ki (nM) or % inhibition at 10 µM: KOR
Opioid KOR, sequence (P41145 whole entry): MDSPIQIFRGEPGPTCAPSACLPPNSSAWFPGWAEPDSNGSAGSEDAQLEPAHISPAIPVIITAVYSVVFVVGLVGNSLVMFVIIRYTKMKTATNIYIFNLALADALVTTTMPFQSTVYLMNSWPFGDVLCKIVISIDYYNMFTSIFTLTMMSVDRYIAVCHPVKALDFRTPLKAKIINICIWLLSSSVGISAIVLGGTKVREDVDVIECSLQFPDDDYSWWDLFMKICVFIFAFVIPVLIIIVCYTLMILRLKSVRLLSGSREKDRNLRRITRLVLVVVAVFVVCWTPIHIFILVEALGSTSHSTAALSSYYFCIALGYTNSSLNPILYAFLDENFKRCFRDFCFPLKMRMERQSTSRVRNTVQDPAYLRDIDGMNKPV

[9] = target: Histamine H4 (Homo sapiens, UniProt Q9H3N8); assay: PDSP binding screen; settings: for inhibition at 10 µM: read-out: Ki (nM) or % inhibition at 10 µM: H4
Histamine H4, sequence (Q9H3N8 whole entry): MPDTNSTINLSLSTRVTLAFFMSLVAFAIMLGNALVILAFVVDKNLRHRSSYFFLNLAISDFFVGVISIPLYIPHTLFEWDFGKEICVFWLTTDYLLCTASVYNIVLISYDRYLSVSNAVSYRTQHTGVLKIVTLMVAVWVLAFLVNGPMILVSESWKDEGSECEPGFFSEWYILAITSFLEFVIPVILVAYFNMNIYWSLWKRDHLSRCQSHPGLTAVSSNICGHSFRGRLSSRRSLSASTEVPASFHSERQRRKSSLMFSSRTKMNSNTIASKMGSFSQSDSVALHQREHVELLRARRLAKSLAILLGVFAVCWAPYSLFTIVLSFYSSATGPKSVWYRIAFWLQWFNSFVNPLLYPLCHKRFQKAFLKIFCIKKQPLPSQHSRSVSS

[10] = target: T3, Muscarinic M1 (Homo sapiens, UniProt P11229); assay: PDSP binding screen; settings: for inhibition at 10 µM: read-out: Ki (nM) or % inhibition at 10 µM: M1
T3 sequence (P11229 1-460): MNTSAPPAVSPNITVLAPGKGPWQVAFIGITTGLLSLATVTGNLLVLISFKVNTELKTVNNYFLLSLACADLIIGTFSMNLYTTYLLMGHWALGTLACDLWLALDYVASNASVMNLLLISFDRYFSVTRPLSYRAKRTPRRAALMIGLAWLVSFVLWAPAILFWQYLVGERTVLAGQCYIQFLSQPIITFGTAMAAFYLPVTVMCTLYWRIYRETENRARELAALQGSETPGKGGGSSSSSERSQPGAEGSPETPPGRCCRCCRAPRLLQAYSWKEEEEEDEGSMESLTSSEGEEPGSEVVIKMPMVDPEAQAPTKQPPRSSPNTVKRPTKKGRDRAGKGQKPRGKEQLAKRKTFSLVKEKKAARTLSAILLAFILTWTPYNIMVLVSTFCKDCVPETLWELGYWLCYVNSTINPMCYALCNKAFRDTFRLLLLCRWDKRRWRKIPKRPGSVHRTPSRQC

[11] = target: Muscarinic M3 (Homo sapiens, UniProt P20309); assay: PDSP binding screen; settings: for inhibition at 10 µM: read-out: Ki (nM) or % inhibition at 10 µM: M3
Muscarinic M3, sequence (P20309 whole entry): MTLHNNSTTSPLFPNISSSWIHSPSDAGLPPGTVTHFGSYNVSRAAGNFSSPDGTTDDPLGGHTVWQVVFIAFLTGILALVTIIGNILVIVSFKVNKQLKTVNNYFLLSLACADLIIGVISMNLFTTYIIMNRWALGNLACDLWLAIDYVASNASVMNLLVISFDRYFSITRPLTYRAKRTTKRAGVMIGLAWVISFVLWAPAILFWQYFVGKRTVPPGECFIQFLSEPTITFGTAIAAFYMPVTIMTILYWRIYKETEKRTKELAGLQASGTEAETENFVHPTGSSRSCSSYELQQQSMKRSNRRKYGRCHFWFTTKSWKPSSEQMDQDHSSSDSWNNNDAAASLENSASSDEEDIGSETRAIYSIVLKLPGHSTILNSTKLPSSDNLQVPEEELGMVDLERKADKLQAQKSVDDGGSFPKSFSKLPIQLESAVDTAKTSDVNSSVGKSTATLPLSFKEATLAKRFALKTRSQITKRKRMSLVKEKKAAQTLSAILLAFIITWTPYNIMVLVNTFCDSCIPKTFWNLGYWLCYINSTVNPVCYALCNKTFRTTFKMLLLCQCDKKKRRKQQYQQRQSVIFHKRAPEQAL

[12] = target: T4, Muscarinic M4 (Homo sapiens, UniProt P08173); assay: PDSP binding screen; settings: for inhibition at 10 µM: read-out: Ki (nM) or % inhibition at 10 µM: M4
T4 sequence (P08173 1-479): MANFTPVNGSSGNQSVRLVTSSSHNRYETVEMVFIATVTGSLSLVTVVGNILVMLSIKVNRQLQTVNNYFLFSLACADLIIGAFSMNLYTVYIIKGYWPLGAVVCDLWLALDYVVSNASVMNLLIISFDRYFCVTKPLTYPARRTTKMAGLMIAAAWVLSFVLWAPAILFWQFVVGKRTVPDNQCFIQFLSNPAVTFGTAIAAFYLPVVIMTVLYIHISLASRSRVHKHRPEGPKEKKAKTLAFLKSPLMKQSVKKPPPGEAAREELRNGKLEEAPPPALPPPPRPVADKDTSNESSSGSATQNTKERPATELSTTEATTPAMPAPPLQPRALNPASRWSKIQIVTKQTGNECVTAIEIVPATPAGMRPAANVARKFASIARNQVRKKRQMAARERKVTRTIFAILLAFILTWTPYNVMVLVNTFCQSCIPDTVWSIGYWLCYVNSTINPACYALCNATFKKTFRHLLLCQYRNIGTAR

[13] = target: human D3 receptors (Homo sapiens, UniProt P35462); assay: Radioligand binding assay with [125I]IABN, D3 receptor; parameters: expressed in transfected cells; host or cells: HEK293; settings: for Ki: [125I]IABN, D3 receptors expressed in HEK cells, mean ± SEM, three experiments, HCl salts, read-out: Ki ± SEM (nM) D3; for D2/D3: selectivity ratio of Ki D2 / Ki D3 (fold)
human D3 receptors, sequence (P35462 whole entry): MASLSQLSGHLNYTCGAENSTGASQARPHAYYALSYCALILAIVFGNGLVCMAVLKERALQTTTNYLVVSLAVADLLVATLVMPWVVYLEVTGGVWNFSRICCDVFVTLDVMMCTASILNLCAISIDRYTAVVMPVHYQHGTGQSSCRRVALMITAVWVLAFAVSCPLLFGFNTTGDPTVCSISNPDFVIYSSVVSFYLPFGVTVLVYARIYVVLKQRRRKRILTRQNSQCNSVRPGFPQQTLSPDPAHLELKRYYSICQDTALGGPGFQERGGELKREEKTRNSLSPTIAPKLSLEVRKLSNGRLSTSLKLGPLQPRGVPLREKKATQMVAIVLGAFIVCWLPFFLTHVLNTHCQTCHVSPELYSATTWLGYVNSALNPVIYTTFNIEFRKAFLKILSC
Method: Two different assays were used to evaluate the properties of the analogs described above. The receptor binding affinity was measured by radioligand binding assays using [^125I]IABN with D2 or D3 receptors highly expressed HEK293 cells. The functional activity of the analogs was determined using a β-arrestin recruitment assay. The assay was initially conducted in agonist binding mode to confirm that they function as antagonists at the D3 receptor. Once this efficacy was confirmed, the assay was conducted in antagonist mode to determine the ability of the antagonist to compete with dopamine at the D3 receptor. The results of the antagonist mode assay are reported as IC50 values.
as §1

Row | SMILES | Ki [1] [nM] | inhibition at 10 µM [2] [%] | inhibition at 10 µM [3] [%] | inhibition at 10 µM [4] [%] | inhibition at 10 µM [5] [%] | Ki [6] [nM] | inhibition at 10 µM [7] [%] | inhibition at 10 µM [8] [%] | inhibition at 10 µM [9] [%] | inhibition at 10 µM [10] [%] | inhibition at 10 µM [12] [%] | Ki [13] [nM] | D2/D3 [13] | Ki [4] [nM] | Ki [8] [nM] | Ki [10] [nM] | inhibition at 10 µM [11] [%] | other results
1 | CCN(CCCNC(=O)c1ccc2ccccc2c1)CCNC(=O)c1cc(Br)cc(OC)c1OC [21a, N-(3-((2-(5-Bromo-2,3-dimethoxybenzamido)ethyl)(ethyl)amino)propyl)-2-naphthamide] | 169 ± 12 | < 50 | < 50 | < 50 | < 50 | 216 | < 50 | < 50 | < 50 | < 50 | < 50 | 1.2 ± 0.2 | 141 | – | – | – | – | Ki [11]: 1260 nM
2 | CCN(CCCNC(=O)c1ccc(-c2ccsc2)cc1)CCNC(=O)c1cc(Br)cc(OC)c1OC [21g, 5-Bromo-N-(2-(ethyl(3-(4-(thiophen-3-yl)benzamido)propyl)amino)ethyl)-2,3-dimethoxybenzamide] | 312 ± 18 | – | – | – | – | 170 | – | – | < 50 | – | – | 2.5 ± 0.3 | 125 | 1890 | 170 | 3430 | < 50 | Ki [2]: 1060 nM; Ki [3]: 2110 nM; Ki [5]: 2010 nM; Ki [7]: 8690 nM; Ki [12]: 1090 nM
3 | CCN(CCCNC(=O)c1cn2ccccc2n1)CCNC(=O)c1cc(Br)cc(OC)c1OC [21e, N-(3-((2-(5-Bromo-2,3-dimethoxybenzamido)ethyl)(ethyl)amino)propyl)imidazo[1,2-a]pyridine-2-carboxamide] | 142 ± 16 | < 50 | < 50 | – | < 50 | – | < 50 | < 50 | < 50 | < 50 | < 50 | 2.8 ± 0.5 | 50.7 | 6520 | – | – | – | inhibition at 10 µM ([6]; read-out: Ki (nM) or % inhibition at 10 µM: D2): < 50%; Ki [11]: 1550 nM
4 | CCN(CCCNC(=O)c1cc2ccccc2n1C)CCNC(=O)c1cc(Br)cc(OC)c1OC [21j, N-(3-((2-(5-Bromo-2,3-dimethoxybenzamido)ethyl)(ethyl)amino)propyl)-1-methyl-1H-indole-2-carboxamide] | 192 ± 22 | < 50 | < 50 | < 50 | < 50 | 76 | < 50 | < 50 | < 50 | < 50 | < 50 | 3.1 ± 0.5 | 61.9 | – | – | – | < 50 | –
5 | CCN(CCCNC(=O)c1ccsc1)CCNC(=O)c1cc(Br)cc(OC)c1OC [21i, N-(3-((2-(5-Bromo-2,3-dimethoxybenzamido)ethyl)(ethyl)amino)propyl)thiophen-e-3-carboxamide] | 304 ± 7 | < 50 | < 50 | < 50 | < 50 | 40 | < 50 | < 50 | < 50 | < 50 | < 50 | 7 ± 0.5 | 43.4 | – | – | – | < 50 | –
6 | CCN(CCCNC(=O)c1ccc(-c2ccncc2)cc1)CCNC(=O)c1cc(Br)cc(OC)c1OC [21c, 5-Bromo-N-(2-(ethyl(3-(4-(pyridin-4-yl)benzamido)propyl)amino)ethyl)-2,3-dimethoxybenzamide] | 107 ± 5 | < 50 | < 50 | < 50 | < 50 | 74 | – | – | < 50 | – | – | 1.1 ± 0.1 | 97.3 | – | 642 | 3390 | < 50 | Ki [7]: > 10000 nM; Ki [12]: 930 nM
7 | CCN(CCCNC(=O)c1cc2ccccc2[nH]1)CCNC(=O)c1cc(Br)cc(OC)c1OC [21d, N-(3-((2-(5-Bromo-2,3-dimethoxybenzamido)ethyl)(ethyl)amino)propyl)-1H-indole-2-carboxamide] | 148 ± 9 | < 50 | < 50 | < 50 | < 50 | 89 | < 50 | – | < 50 | – | < 50 | 0.8 ± 0.2 | 180.5 | – | 2330 | > 10000 | < 50 | –
8 | CCCN(CCCNC(=O)c1ccc(-c2cccs2)cc1)CCNC(=O)c1cc(Br)cc(OC)c1OC [20a, 5-Bromo-2,3-dimethoxy-N-(2-(propyl(3-(4-(thiophen-2-yl)benzamido)propyl)amino)ethyl)benzamide] | 259 ± 23 | – | – | – | – | 185 | < 50 | – | – | < 50 | < 50 | 2.7 ± 0.4 | 110 | 3710 | 116 | – | < 50 | Ki [2]: 1050 nM; Ki [3]: 2210 nM; Ki [5]: 4290 nM; Ki [9]: 3460 nM
